Publication PMC8570331, “8-Hydroxyquinoline-Amino Acid Hybrids and Their Half-Sandwich Rh and Ru Complexes: Synthesis, Anticancer Activities, Solution Chemistry and Interaction with Biomolecules” (International Journal of Molecular Sciences, 2021)
Entries after “also recorded” stand apart in the source; their conditions may differ.

Tests used:
[1] = test system: MRC-5 human lung fibroblast cell line; experiment: MTT cytotoxicity assay in MRC-5; assay type: cell-based
Protocol: The in vitro cytotoxic activity of the novel water-soluble amino acid derivatives of HQCl and their RhCp* and RuCym complexes was measured by the thiazolyl blue tetrazolium bromide (MTT) assay in two human colon adenocarcinoma cell lines (Colo-205 and Colo-320) and in one non-tumoral human lung fibroblast cell line (MRC-5). The results are given in terms of IC50 values (Table 1). Colo-205 is a drug-sensitive cell line with a normal ABCB1 transporter expression pattern, while Colo-320 is multidrug-resistant and overexpresses the ABCB1 system.
All cell culture reagents were obtained from Sigma-Aldrich and plasticware from Sarstedt (Nümbrecht, Germany). Human colonic Colo-205 doxorubicin-sensitive and Colo-320/MDR-LRP multidrug-resistant adenocarcinoma and MRC-5 human embryonal lung fibroblast cell lines were purchased from LGC Promochem, Teddington, UK. The colonic adenocarcinoma cells were cultured in Roswell Park Memorial Institute (RPMI) 1640 medium supplemented with 10% heat-inactivated fetal bovine serum, 2 mM L-glutamine, 1 mM sodium pyruvate and […]. The MRC-5 cell line was cultured in Eagle’s Minimal Essential Medium (EMEM, Sigma-Aldrich, St. Louis, MO, USA) supplemented with a non-essential amino acid (NEAA) mixture (Sigma-Aldrich, St. Louis, MO, USA) a selection of vitamins, 10% heat-inactivated foetal bovine serum (FBS), 2 mM L-glutamine (Sigma-Aldrich, St. Louis, MO, USA), 1 mM Na-pyruvate (Sigma-Aldrich, St. Louis, MO, USA), nystatin (Sigma-Aldrich, St. Louis, MO, USA) and a penicillin-streptomycin mixture (Sigma-Aldrich, St. Louis, MO, USA) in con-centrations of 100 U/L and 10 mg/L, respectively. The cells were incubated at 37 °C, in a 5% CO2, 95% air atmosphere. All cell lines were detached with Trypsin-Versene (EDTA) solution for 5 min at 37 °C.
The tested compounds were dissolved in 10% (v/v) DMSO/H2O using 4 mM concentration. Doxorubicin (Merck, Darmstadt, Germany) was used as a positive control. Then stock solutions were diluted in complete culture medium, and two-fold serial dilutions of compounds were prepared in 100 μL of the medium, horizontally. The semi-adherent colonic adenocarcinoma cells were treated with Trypsin-Versene (EDTA) solution. They were adjusted to a density of 1 × 10^4 cells in 100 μL of RPMI 1640 or EMEM medium and were added to each well, with the exception of the medium control wells. The final volume of the wells containing compounds and cells was 200 μL. The plates containing Colo-205, Colo-320 or MRC-5 cells were incubated at 37 °C for 72 h; at the end of the incubation period, 20 μL of MTT solution (from a stock solution of 5 mg/mL) were added to each well. After incubation at 37 °C for 4 h, 100 μL of SDS solution (10% in 0.01 M HCI) were added to each well, and the plates were further incubated at 37 °C overnight. […] The IC50 values were obtained from at least 3 independent experiments.

[2] = molecular target: T1, HSA site II (subdomain IIIA) (Homo sapiens, UniProt P02768); experiment: Dansylglycine (DG) site marker displacement, spectrofluorometry; assay type: binding; conditions: cHSA = 1 µM, cDG = 1 µM, pH 7.4 (PBS’)
T1 construct: purchased Sigma-Aldrich A8763
Protocol: Tryptophan (Trp-214) quenching and dansylglycine (DG) site marker displacement experiments were performed to calculate binding constants for site I and II, respectively, similar to our previous works.
Fluorescence measurements were carried out on a Fluoromax (Horiba Jobin Yvon, Longjumeau, France) spectrofluorometer using 1 cm × 1 cm quartz cuvette. Samples contained 1 µM HSA or 1 µM DG and 1 µM HSA, or 20 µM (nucleotide) ct-DNA and 5 µM EB, and the complex concentration was varied between 0 and 40 µM or 0 and 300 µM, respectively. Spectroscopic measurements were carried out on individually prepared samples. Excitation wavelengths were 295 nm for Trp-214 quenching, 340 nm for the DG displacement studies and 510 nm for the ct-DNA–EB system. The calculated conditional stability constants for HSA–complex species were obtained using the computer program HypSpec. Calculations always were based on data obtained from at least two independent measurements. Self-absorbance and inner filter effect had to be taken into account, and corrections were made as was described in our former works.

pGEX-6P-1 plasmid DNA = experiment: In vitro DNA cleavage analysis, agarose gel electrophoresis; assay type: biochemical; conditions: 50 ng plasmid, 0–100 µM compound, 37 °C, up to 72 h, pH 7.4
Protocol: In this assay, both single-stranded and double-stranded cleavage can be detected using bacterial plasmid DNA since the plasmid changes from the intact superhelical (sc) conformation to open circular (oc) and linear over digestion, which can be well detected by agarose gel electrophoresis. […] The RhCp* complex behaved similarly up to 10 µM, whereas at 100 µM concentration, the superhelical DNA remained intact during the incubation period, although the disappearance of the open circular DNA line is seen after 72 h. The observed effect is clearly not related to DNA cleavage; since fragmentation or the appearance of linear DNA could not be seen, the supercoiled DNA form was still visible. We can assume that the decrease in intensity might be due to the competition for DNA between the concentrated complex and EB (that is used for the detection of DNA in the gel).
Before the measurements, the reaction buffer was treated with 5 mg/L Chelex-100 (Sigma-Aldrich) cation exchange resin for 30 min at 25 °C. This was followed by filtration of the buffer through 0.2 µm pore size sterile, non-pyrogenic/endotoxin-free non-cytotoxic PES filter (Sarstedt) under laminal flow. The tested compounds were dissolved in this filtered cation exchanged buffer. pGEX-6P-1 DNA was purified by GeneJET plasmid maxiprep kit (Thermo Scientific™, Waltham, MA, USA) and was treated with Chelex-100 resin and filtered as described previously, and was followed by buffer exchange of the DNA sample using Amicon 10K 0.5 mL filters (4 × 5 min, 14,000 g, 25 °C) to the filtered reaction buffer. […] Based on agarose gel electrophoresis, no genomic DNA contamination was detected, and the plasmid DNA is largely in superhelical conformation with a small fraction of open circular form. In a typical reaction, 10 µL aliquots containing 50 ng DNA and 0–100 µM compound were incubated at 37 °C from 0 h up to 3 days. The reaction mixture was immediately examined after incubation or frozen at −30 °C until the gel electrophoresis experiment. […] Images were recorded by a Uvitec BTS 20MS gel documentation system.

T1 sequence (P02768 25-609): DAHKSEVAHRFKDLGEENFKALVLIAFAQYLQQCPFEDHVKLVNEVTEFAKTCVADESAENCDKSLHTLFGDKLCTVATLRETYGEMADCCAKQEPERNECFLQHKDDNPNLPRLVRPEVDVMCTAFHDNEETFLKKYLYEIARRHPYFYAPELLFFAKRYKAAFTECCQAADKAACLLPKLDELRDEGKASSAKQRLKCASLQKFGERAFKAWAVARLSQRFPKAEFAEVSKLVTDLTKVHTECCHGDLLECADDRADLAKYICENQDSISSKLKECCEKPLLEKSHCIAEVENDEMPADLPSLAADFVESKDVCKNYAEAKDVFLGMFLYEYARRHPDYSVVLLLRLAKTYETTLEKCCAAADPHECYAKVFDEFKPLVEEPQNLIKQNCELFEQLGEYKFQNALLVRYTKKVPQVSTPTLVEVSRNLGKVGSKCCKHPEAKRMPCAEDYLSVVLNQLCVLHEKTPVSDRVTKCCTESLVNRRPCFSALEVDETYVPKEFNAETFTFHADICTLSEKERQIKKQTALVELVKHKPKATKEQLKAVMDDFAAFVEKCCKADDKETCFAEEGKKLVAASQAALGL

| SMILES | IC50 ([1]; 72 h incubation) [µM] | DG Displacement logKDG′, Site II [2] | IC50 ([1]; Homo sapiens, MRC5, 72 h incubation) [µM] | DNA cleavage / DNA damage (pGEX-6P-1 plasmid DNA) |
| --- | --- | --- | --- | --- |
| Cc1c(C)c(C)[c-](C)c1C.O=C(O)[C@H]1CCC[NH+]1Cc1cc(Cl)c2cccnc2c1[O-].[Cl-].[Cl-].[Rh+3] [RhCp*–HQCl-D-Pro, [RhCp*(HQCl-D-Pro)Cl]Cl] | 82.1 ± 5.1 | 5.5 ± 0.1 | – | – |
| O=C(O)[C@H]1CCCCN1Cc1cc(Cl)c2cccnc2c1O [HQCl-D-hPro, (R)-5-chloro-7-((homoproline-1-yl)methyl)8-hydroxyquinoline] | – | – | 3.63 ± 0.1 | do not induce DNA cleavage; also recorded: No DNA damage was observed |
| Cc1c(C)c(C)[c-](C)c1C.O=C(O)[C@H]1CCCC[NH+]1Cc1cc(Cl)c2cccnc2c1[O-].[Cl-].[Cl-].[Rh+3] [RhCp*–HQCl-D-hPro, [RhCp*(HQCl-D-hPro)Cl]Cl] | 37.6 ± 2.3 | 5.4 ± 0.1 | – | do not induce DNA cleavage |
| Cc1ccc(C(C)C)cc1.O=C(O)[C@H]1CCC[NH+]1Cc1cc(Cl)c2cccnc2c1[O-].[Cl-].[Cl-].[Ru+2] [RuCym–HQCl-D-Pro, [RuCym(HQCl-D-Pro)Cl]Cl] | > 100 | 5.6 ± 0.1 | – | – |
| Cc1ccc(C(C)C)cc1.O=C(O)[C@H]1CCCC[NH+]1Cc1cc(Cl)c2cccnc2c1[O-].[Cl-].[Cl-].[Ru+2] [RuCym–HQCl-D-hPro, [RuCym(HQCl-D-hPro)Cl]Cl] | > 100 | 5.7 ± 0.1 | – | do not induce DNA cleavage; also recorded: No DNA damage was observed |
